Among the data in patent US10710986B2, “PD-1/PD-L1 inhibitors” (Gilead Sciences, Inc., priority 2018, dated 2020) are IC50 values, retold here.

SMILES strings stand for the structures.

This assay deals with PD-1/PD-L1 (Homo sapiens (Human), UniProt Q9NZQ7). The assay can be described thus: PD-1/PD-L1 biochemical protein-protein interaction assay (ALPHA). The conditions noted are these: 0.3 nM His tagged PD-L1, 2.5 nM biotinylated Fc-PD-1, 60 minutes at 25° C., read-out: IC50 PD-L1-PD1.
Chain of PD-1/PD-L1 (Q9NZQ7 19-238): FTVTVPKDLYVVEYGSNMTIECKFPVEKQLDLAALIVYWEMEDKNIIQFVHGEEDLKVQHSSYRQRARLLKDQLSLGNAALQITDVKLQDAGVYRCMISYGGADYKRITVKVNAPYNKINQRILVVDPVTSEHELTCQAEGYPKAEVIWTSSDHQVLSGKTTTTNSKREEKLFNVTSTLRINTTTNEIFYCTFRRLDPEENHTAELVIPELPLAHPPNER
What is called IC50 is the concentration at which inhibition is half-maximal. As for `COc1nc(-c2cccc(-c3cccc(-c4cnc(CNCCO)c(OC)n4)c3F)c2Cl)ccc1CNCCO` [compound 615], the IC50 is 0.291 nM.

On to `COc1nc(-c2cccc(-c3cccc(-c4cnc(C5=NC[C@@H](C)N5)c(OC)n4)c3Cl)c2Cl)cnc1C1=NC[C@@H](C)N1` [compound 129], for which the IC50 came to 0.064 nM.

As to `COc1nc(-c2cccc(-c3cccc(-c4cnc(CN5CC[C@@H](OC)C5)c(OC)n4)c3Cl)c2Cl)cnc1CNC[C@@H]1CCC(=O)N1` [compound 427], the half-inhibitory concentration (IC50) was 0.136 nM.

Regarding `COc1nc(-c2cccc(-c3cccc(-c4cnc(CN[C@H]5C[C@@H](OC(F)F)C5)c(OC)n4)c3Cl)c2Cl)cnc1CNC[C@@H]1CCC(=O)N1` [compound 536], the IC50 turned out to be 0.276 nM.

For `COc1ccnc2c1CN(Cc1ncc(-c3cccc(-c4cccc(-c5cnc(CNC[C@@H]6CCC(=O)N6)c(OC)n5)c4Cl)c3Cl)nc1OC)C2` [compound 414], the IC50 was determined as 0.559 nM.

As for `COC1CN(Cc2ncc(-c3cccc(-c4cccc(-c5cnc(CN6CC(OC)C6)c(N(C)C)n5)c4Cl)c3Cl)nc2Cl)C1` [compound 98], the half-inhibitory concentration (IC50) was 0.647 nM.

Regarding `COc1nc(-c2cccc(-c3cccc(-c4cnc(CNCC(C)(C)O)c(OC)n4)c3Cl)c2Cl)cnc1CNC[C@@H]1CCC(=O)N1` [compound 378], the IC50 amounted to 0.396 nM.

Take `CCNc1nc(-c2cccc(-c3cccc(-c4cnc(CN5CC(O)C5)c(NCC)n4)c3Cl)c2Cl)cnc1CN1CC(O)C1` [compound 66]: the IC50 is 0.61 nM.

With `COc1nc(-c2cccc(-c3cccc(-c4cnc(CN[C@H]5CC[C@@H](O)C5)c(OC)n4)c3Cl)c2Cl)cnc1CNC[C@@H]1CCC(=O)N1` [compound 356], the IC50 is 0.102 nM.

As for `COc1nc(-c2cccc(-c3cccc(-c4cnc(CN5C[C@H](O)C[C@@H](F)C5)c(OC)n4)c3Cl)c2Cl)cnc1CNC[C@@H]1CCC(=O)N1` [compound 264], the IC50 worked out at 0.407 nM.

On to `COc1nc(-c2cccc(-c3cccc(-c4cnc(CNC[C@H]5CCC[C@@H]5O)c(OC)n4)c3Cl)c2Cl)cnc1CNC[C@@H]1CCC(=O)N1` [compound 186], for which the IC50 amounted to 0.1 nM.

With `COc1nc(-c2cccc(-c3cccc(-c4cnc(CN[C@@H]5CCC[C@@H]5O)c(OC)n4)c3Cl)c2Cl)cnc1CNC[C@@H]1CCC(=O)N1` [compound 381], the IC50 came to 0.085 nM.

Consider `COc1nc(-c2cccc(-c3cccc(-c4cnc(CN[C@H]5CCOC[C@@H]5O)c(OC)n4)c3Cl)c2Cl)cnc1CNC[C@@H]1CCC(=O)N1` [compound 335], for which the IC50 was found to be 0.172 nM.

For `COc1nc(-c2cccc(-c3cccc(-c4cnc(CNC[C@@H]5CCC(=O)N5)c(OC)n4)c3Cl)c2Cl)cnc1CNCC1COC(=O)N1` (some centres unmarked) [compound 281], the IC50 turned out to be 1.19 nM.

Take `COc1nc(-c2cccc(-c3cccc(-c4cnc(CNC[C@@H]5CCC(=O)N5)c(OC)n4)c3Cl)c2Cl)cnc1CNCC1CC1` [compound 179]: the IC50 stood at 0.211 nM.

As to `COc1nc(-c2cccc(-c3cccc(-c4cnc(CN5CCC6(CC5)NC(=O)NC6=O)c(OC)n4)c3Cl)c2Cl)cnc1CNC[C@@H]1CCC(=O)N1` [compound 290], the IC50 was 0.259 nM.

For `COc1nc(-c2cccc(-c3cccc(-c4cnc(CNC[C@H]5CNC(=O)C5)c(OC)n4)c3Cl)c2Cl)cnc1CNC[C@H]1CNC(=O)C1` [compound 475], the concentration for half-maximal inhibition (IC50) stood at 0.162 nM.

Take `COc1nc(-c2cccc(-c3cccc(-c4cnc(C5=NCCN5)c(OC)n4)c3Cl)c2Cl)ccc1CN1CC(C)(O)C1` [compound 642]: the IC50 came to 0.064 nM.

With `COc1nc(-c2cccc(-c3cccc(-c4cc(C)c(CN5CC6(CCC(=O)N6)C5)c(OC)n4)c3F)c2Cl)cnc1CN1CC2(CCC(=O)N2)C1` [compound 650], the half-maximal inhibitory concentration (IC50) amounted to 0.064 nM.

For `COc1nc(-c2cccc(-c3cccc(-c4cnc(CN5CCC[C@@H]5CO)c(OC)n4)c3Cl)c2Cl)cnc1CNC[C@@H]1CCC(=O)N1` [compound 23], the half-inhibitory concentration (IC50) came to 0.221 nM.

On to `COc1nc(-c2cccc(-c3cccc(-c4cnc(CNC(CO)CCF)c(OC)n4)c3Cl)c2Cl)cnc1CNC[C@@H]1CCC(=O)N1` (some centres unmarked) [compound 247], for which the concentration for half-maximal inhibition (IC50) is 0.13 nM.

In the case of `COc1nc(-c2cccc(-c3cccc(-c4cnc([C@@H](C)N)c(OC)n4)c3Cl)c2Cl)cnc1CNC[C@@H]1CCC(=O)N1` [compound 315], the IC50 amounted to 0.18 nM.

With `COc1nc(-c2cccc(-c3cccc(-c4cnc(CN5CC(C)(O)C5)c(OC)n4)c3Cl)c2Cl)cnc1CN` [compound 596], the IC50 was determined as 0.181 nM.

As to `COc1nc(-c2cccc(-c3cccc(-c4cnc(CN(C)C[C@@H]5CCC(=O)N5)c(OC)n4)c3Cl)c2Cl)cnc1CN(C)C[C@@H]1CCC(=O)N1` [compound 327], the IC50 is 0.238 nM.

In the case of `COc1nc(-c2cccc(-c3cccc(-c4cnc(CNC[C@@H]5CCC(=O)N5)c(OC)n4)c3Cl)c2Cl)ccc1CN1CC[C@](C)(O)C1` [compound 159], the IC50 was 0.15 nM.

As to `CNc1nc(-c2cccc(-c3cccc(-c4cnc(CN5CC6(CNC(=O)C6)C5)c(NC)n4)c3Cl)c2Cl)cnc1CN1CC2(CNC(=O)C2)C1` [compound 78], the IC50 amounted to 0.064 nM.

On to `CNC(=O)[C@@H]1CCCN1Cc1ncc(-c2cccc(-c3cccc(-c4cnc(CNC[C@@H]5CCC(=O)N5)c(OC)n4)c3Cl)c2Cl)nc1OC` [compound 19], for which the IC50 was 0.199 nM.

Regarding `COc1nc(-c2cccc(-c3cccc(-c4cnc(CN5CCC6(CCOC6=O)C5)c(OC)n4)c3Cl)c2Cl)cnc1CNC[C@@H]1CCC(=O)N1` (some centres unmarked) [compound 232], the IC50 was 0.312 nM.

As for `COc1nc(-c2cccc(-c3cccc(-c4cnc(CN5C[C@H](O)[C@@H](F)C5)c(OC)n4)c3Cl)c2Cl)cnc1CNC[C@@H]1CCC(=O)N1` [compound 265], the IC50 came out at 0.225 nM.

Consider `COCC1(CO)CCN(Cc2ncc(-c3cccc(-c4cccc(-c5cnc(CNC[C@@H]6CCC(=O)N6)c(OC)n5)c4Cl)c3Cl)nc2OC)C1` (some centres unmarked) [compound 463], for which the IC50 was 0.076 nM.

`COc1nc(-c2cccc(-c3cccc(-c4cnc(CNC(CCO)C5CC5)c(OC)n4)c3Cl)c2Cl)cnc1CNC[C@@H]1CCC(=O)N1` (some centres unmarked) [compound 237]: the IC50 turned out to be 0.064 nM.

In the case of `COc1nc(-c2cccc(-c3cccc(-c4cnc(CNC[C@@H]5CCC(=O)N5)c(OC)n4)c3Cl)c2Cl)cnc1CNCc1cccnc1` [compound 425], the IC50 is 0.414 nM.

For the molecule `COc1nc(-c2cccc(-c3cccc(-c4cnc(CNC[C@H]5C[C@@H](O)C5)c(OC)n4)c3Cl)c2Cl)cnc1CNC[C@@H]1CCC(=O)N1` [compound 172], the IC50 came out at 0.222 nM.

For the molecule `COc1nc(-c2cccc(-c3cccc(-c4cnc(C5=NCCN5)c(OC)n4)c3Cl)c2Cl)cnc1CN` [compound 584], the IC50 is 0.118 nM.

As to `COc1nc(-c2cccc(-c3cccc(-c4ccc5c(CN6CC7(CNC(=O)C7)C6)cn(C)c5n4)c3Cl)c2Cl)cnc1CN1CC2(CNC(=O)C2)C1` [compound 493], the IC50 was determined as 0.109 nM.

Turning to `COc1nc(-c2cccc(-c3cccc(-c4cnc(CNCCCN5CCCS5(=O)=O)c(OC)n4)c3Cl)c2Cl)cnc1CNCCCN1CCCS1(=O)=O` [compound 570], the IC50 worked out at 0.414 nM.

Turning to `COc1nc(-c2cccc(-c3cccc(-c4cnc(CN5CC[C@@H](C(N)=O)C5)c(OC)n4)c3Cl)c2Cl)cnc1CN1CC[C@@H](C(N)=O)C1` [compound 532], the IC50 worked out at 0.273 nM.

Regarding `CNC(=O)CNCc1ncc(-c2cccc(-c3cccc(-c4cnc(CNC[C@@H]5CCC(=O)N5)c(OC)n4)c3Cl)c2Cl)nc1OC` [compound 288], the IC50 was 0.26 nM.

Turning to `COc1nc(-c2cccc(-c3cccc(-c4cnc(CN5[C@@H](C)COC[C@@H]5C)c(OC)n4)c3Cl)c2Cl)cnc1CNC[C@@H]1CCC(=O)N1` [compound 332], the IC50 amounted to 0.743 nM.

As to `Cc1nc(-c2cccc(-c3cccc(-c4cnc(CNC[C@@H]5CCC(=O)N5)c(C)n4)c3Cl)c2Cl)cnc1CNC[C@@H]1CCC(=O)N1` [compound 96], the IC50 amounted to 1.5 nM.

Regarding `COc1nc(-c2cccc(-c3cccc(-c4cnc(CN5CC[C@@H](O)[C@@H](F)C5)c(OC)n4)c3Cl)c2Cl)cnc1CNC[C@@H]1CCC(=O)N1` [compound 278], the IC50 came out at 0.538 nM.

For `COc1nc(-c2cccc(-c3cccc(-c4cnc(CNC[C@H]5CCOC5)c(OC)n4)c3Cl)c2Cl)cnc1CNC[C@H]1CCOC1` [compound 579], the IC50 amounted to 0.782 nM.

Turning to `COc1nc(-c2cccc(-c3cccc(-c4cnc(CN[C@H](CO)C(C)C)c(OC)n4)c3Cl)c2Cl)cnc1CNC[C@@H]1CCC(=O)N1` [compound 257], the IC50 stood at 0.426 nM.

Turning to `COc1nc(-c2cccc(-c3cccc(-c4cnc(CN5CC(OC)C5)c(OC)n4)c3Cl)c2Cl)cnc1CN1CC(OC)C1` [compound 400], the IC50 amounted to 0.173 nM.

Take `COc1nc(-c2cccc(-c3cccc(-c4cnc(CN[C@@H]5CC[C@@H]6CC(=O)N[C@@H]65)c(OC)n4)c3Cl)c2Cl)cnc1CNC[C@@H]1CCC(=O)N1` [compound 387]: the IC50 stood at 0.625 nM.

On to `COc1nc(-c2cccc(-c3cccc(-c4cnc(CNC[C@@H]5CCC(=O)N5)c(OC)n4)c3Br)c2F)cnc1CNC[C@@H]1CCC(=O)N1` [compound 396], for which the IC50 came out at 2.02 nM.

Take `COc1nc(-c2cccc(-c3cccc(-c4cnc(CN5C[C@@H]6CCC[C@]6(CO)C5)c(OC)n4)c3Cl)c2Cl)cnc1CNC[C@@H]1CCC(=O)N1` [compound 230]: the half-maximal inhibitory concentration (IC50) came out at 0.331 nM.

Turning to `O=C1CC[C@@H](CNCc2ncc(-c3cccc(-c4cccc(-c5cnc(CNC[C@@H]6CCC(=O)N6)c(Cl)n5)c4Cl)c3Cl)nc2Cl)N1` [compound 111], the IC50 turned out to be 0.297 nM.

Take `COc1nc(-c2cccc(-c3cccc(-c4cnc(CNC56CC(C#N)(C5)C6)c(OC)n4)c3Cl)c2Cl)cnc1CNC[C@@H]1CCC(=O)N1` [compound 7]: the IC50 is 0.43 nM.

With `COc1nc(-c2cccc(-c3cccc(-c4cnc(CN5CC(C)(N)C5)c(OC)n4)c3Cl)c2Cl)cnc1CN1CC(C)(N)C1` [compound 621], the IC50 was found to be 1.05 nM.

Turning to `COc1nc(-c2cccc(-c3cccc(-c4cnc(CNC[C@@H]5CCC(=O)N5)c(OC)n4)c3Cl)c2Cl)cnc1CNCc1ccncc1` [compound 422], the IC50 came out at 0.554 nM.

Consider `COc1nc(-c2cccc(-c3cccc(-c4cnc(CN[C@@H]5CC[C@H](O)C5)c(OC)n4)c3Cl)c2Cl)cnc1CNC[C@@H]1CCC(=O)N1` [compound 353], for which the concentration for half-maximal inhibition (IC50) came out at 0.064 nM.

Take `CN(C)c1nc(-c2cccc(-c3cccc(-c4cnc(CN5CC6(CNC(=O)C6)C5)c(N(C)C)n4)c3Cl)c2Cl)cnc1CN1CC2(CNC(=O)C2)C1` [compound 101]: the IC50 is 0.13 nM.
